{"source": "patent US20130014428A1", "about": "“METHODS OF MONITORING AND CONTROLLING THE WALNUT TWIG BEETLE, PITYOPHTHORUS JUGLANDIS” (The United States of America as Represented by the …, priority 2011, published 2013)", "assay_type_in_all_cases": "in vivo, Pityophthorus juglandis", "key": {"[1]": {"tested_on": "WTB", "test": "Trap height: 4-unit Lindgren funnel traps baited with X", "conditions": "for trap catches, female WTB / trap catches, male WTB: 15 to 80 mg/d", "protocol": "In another experiment, the effect of trap height on the flight response of WTB was also tested with 4-unit Lindgren funnel traps at Wolfskill Experimental Orchards from late summer to early fall. The traps were each baited with the commercial version of 3-methyl-2-buten-1-ol (15 to 80 mg/d, Contech pouch) and placed at 45, 123, 199, and 271 cm (hereafter 0.5, 1.2, 2.0, and 2.7 m) from the orchard floor (measured from the floor to the middle of the trap). Traps were attached to individual 3 m metal conduit poles by using a thick piece of wire threaded through a hole drilled in the conduit pole and the eyebolt attached to the top of the funnel trap. (See Seybold, S. J., Dallara, P. L., Hishinuma, S. M., and Flint, M. L. Detecting and Identifying the Walnut Twig Beetle: Monitoring Guidelines for the Invasive Vector of Thousand Cankers Disease of Walnut, University of California Agriculture and Natural Resources, Statewide Integrated Pest Management Program, 11 pp., Apr. 30, 2012.) Three blocks of treatments were installed, trap catches were collected daily during periods of high flight activity, and the treatments were re-randomized among the four trap stations within a block each time that the traps were emptied.\n(§1) Statistical Analyses. Analyses of treatment effects for the tests of trap type were performed by using Friedman's non-parametric analysis of variance or a sign test, depending on the number of treatments. (See Zar, J. H. 2010. Biostatistical Analysis. 5th ed. Pearson Prentice Hall, Englewood Cliffs, N.J.) Analysis of treatment effects for the Rain•X experiment was performed by using a Wilcoxon paired sample test. Id. Multiple comparisons for experiments with more than two treatments were performed with an a posteriori Nemenyi test with experimentwise α=0.05. Id. In all cases, male and female WTB were analyzed separately. Proportions of female WTB responding to treatments were calculated and 95% confidence intervals determined by using the Clopper-Pearson method. Id."}, "[2]": {"tested_on": "WTB", "test": "Baited vs unbaited funnel trap pairs in Tennessee and Virginia", "conditions": "15-80 mg/d", "protocol": "The efficacy of the WTB trap bait as a detection tool was tested across the United States for a range of populations of the beetle that might be biologically heterogeneous and may occur at various densities in the landscape. The information learned from these trials was instrumental in preparing the national trapping guidelines for walnut twig beetle. […] For each state, trapping was performed in areas of known WTB infestation as well as nearby localities where WTB had not been previously detected. […]\nTo compare the effectiveness of the bait in the eastern range of WTB, pairs of baited and unbaited traps were located in Tennessee (3 pairs, 10 repeated measures for each pair) and Virginia (4 pairs, 12 repeated measures for each pair). […] Trap catch data were analyzed with a sign test. […]"}, "[3]": {"tested_on": "WTB", "test": "Trap height: clear plexiglass panel traps baited with X", "conditions": "5 mg/d, 15 ml load", "protocol": "Effect of Trap Height on Trap Catch. The flight response of WTB to clear plexiglass panel traps coated with Stikem Special (Seabright Labs, Emeryville, Calif.) and baited with 3-methyl-2-buten-1-ol (5 mg/d, 15 ml load, polyethylene bottle) located at three heights (2, 3, and 4 m above the forest floor) was tested. The traps were placed in the crowns of J. hindsii located in a native riparian stand at Shadow Cliffs Regional Park, Alameda Co., Calif. from early to mid-spring. Both sides of a single 23 cm×14 cm sheet of clear plexiglass were covered with Stikem Special adhesive and the sheet was hung from string at each of the 3 heights from a single J. hindsii branch. The aggregation pheromone bait was hung immediately above each trap. Each group of three traps was assigned a unique position within the stand and treated as a block in a completely randomized block design (N=22). Traps within a block were all collected on the same day; blocks were collected after 2 to 7 days (after periodic flights of WTB).\nas §1"}}, "data": [{"smiles": "CC(C)=CCO", "note": "[X, 3-methyl-2-buten-1-ol]", "values": [{"measurement": "proportion of females responding", "setting": "[1]; 0.5 m trap", "value": 0.76}, {"measurement": "trap catches, female WTB", "setting": "[1]; 0.5 m trap", "value": 392}, {"measurement": "trap catches, male WTB", "setting": "[1]; 0.5 m trap", "value": 125}, {"measurement": "proportion of females responding", "setting": "[1]; 1.2 m trap", "value": 0.77}, {"measurement": "trap catches, female WTB", "setting": "[1]; 1.2 m trap", "value": 469}, {"measurement": "trap catches, male WTB", "setting": "[1]; 1.2 m trap", "value": 139}, {"measurement": "proportion of females responding", "setting": "[1]; 2.0 m trap", "value": 0.77}, {"measurement": "trap catches, female WTB", "setting": "[1]; 2.0 m trap", "value": 875}, {"measurement": "trap catches, male WTB", "setting": "[1]; 2.0 m trap", "value": 265}, {"measurement": "proportion of females responding", "setting": "[1]; 2.7 m trap", "value": 0.77}, {"measurement": "trap catches, female WTB", "setting": "[1]; 2.7 m trap", "value": 757}, {"measurement": "trap catches, male WTB", "setting": "[1]; 2.7 m trap", "value": 225}, {"measurement": "WTB detected at baited traps", "setting": "[2]; Tennessee, 4-unit funnel traps, N=30", "value": 19.1, "unit": "WTB/trap/week"}, {"measurement": "WTB captured in baited traps", "setting": "[2]; Virginia, 12-unit funnel traps, N=48", "value": 42.3, "unit": "WTB/trap/week"}, {"measurement": "proportion of females responding", "setting": "[3]; clear plexiglass panel trap at 2 m", "value": 0.68}, {"measurement": "proportion of females responding", "setting": "[3]; clear plexiglass panel trap at 3 m", "value": 0.64}, {"measurement": "proportion of females responding", "setting": "[3]; clear plexiglass panel trap at 4 m", "value": 0.72}]}]}
